Earlier results as cited in patent US20080167325A1, “VALACYCLOVIR COMPOSITIONS” (priority 2006, published 2008).

Columns and labels:
[1] = first-pass hepatic metabolism through enzymatic hydrolysis
[2] = compared with acyclovir

CC(C)[C@H](N)C(=O)OCCOCn1cnc2c(=O)[nH]c(N)nc21 [Valacyclovir, L-valine, 2-[(2-amino-1,6-dihydro-6-oxo-9H-purin-9-yl)methoxy]ethyl ester]
converted to the active compound, acyclovir, and L-valine [1]: ~99%
bioavailability [2]: much improved bioavailability
metabolized by cytochrome P450 enzymes (cytochrome P450 enzymes): Neither valacyclovir nor acyclovir is metabolized
